Data as given in patent US20160051491A1, “NOVEL USE OF PINOSYLVIN FOR ANGIOGENESIS PROMOTION” (INDUSTRY-ACADEMIC COOPERATION FOUNDATION, DANKOOK UNIVERSITY, priority 2013, published 2016).

Experiments:
caspase-3 = experiment: Caspase-3 cleavage (Western blot) and caspase-3 colorimetric activity (Ac-DEVD-pNA) in BAEC lysates; assay type: cell-based, Bovine; conditions: FIGS. 1C and 1D
Protocol: Caspase-3 activity was measured with Ac-DEVD-pNA as a substrate using the caspase-3 Colorimetric Activity Assay Kit (Chemicon). Specifically, BAECs were grown to confluency in 20% FBS-DMEM and then starved for more than 8 hours. The cells were treated with various apoptotic agents (100 μM ETO) and then lysed. The cell lysates were reacted in a reaction buffer containing 236 μM Ac-DEVD-pNA with or without specific inhibitors (0.1 μM Ac-DEVD-CHO) in 96-well plates at 37° C. for 2 hours. Then, the caspase-3 activity was determined by measuring the absorbance of the reactions at 405 nm using a microplate reader (Bio-Rad, Model 550).
(§1) The BAECs were grown to confluency in 20% FBS-DMEM, washed with ice-cold PBS, scraped in 250 μL RIPA buffer (50 mM Tris, pH 7.5, 150 mM NaCl, 1% NP-40, 0.5% sodium deoxycholate, and 0.1% SDS), and solubilized for 15 minutes to prepare the cell lysates. All the solubilization procedures were performed at 4° C., and the protein content of the soluble cell lysates was measured using a Bio-Rad DC assay kit (Bio-Rad). The solution lysates (10 μg each) were resolved by SDS-PAGE. The resolved protein bands were then transferred to a polyvinylidene difluoride (PVDF) membrane (Bio-Rad) and probed with p-ERK (cell signaling), p-p38 MAP kinase (cell signaling), p-JNK (cell signaling), p-eNOS (cell signaling), p-Akt (cell signaling) and caspase-3 (cell signaling) for 1 hour to overnight. The membranes were then incubated with a secondary antibody at room temperature for 1 hour, where goat anti-rabbit IgG conjugated to alkaline phosphatase was used as a secondary antibody. Finally, the results were confirmed using a chemiluminescent detection method.

[1] = tested on: Bovine aortic endothelial cells (BAECs); experiment: Etoposide-induced apoptosis, Hoechst 33258 staining of fragmented nuclei; assay type: cell-based; conditions: FIG. 1B
Protocol: (§2) Bovine aortic endothelial cells (BAECs) were obtained from the descending thoracic aortas, and maintained in a growth medium (DMEM (1 g/L glucose, Life technologies, Inc.) containing 20% fetal bovine […] (FBS, Atlanta Biologicals) without antibiotics) at 37° C. in 5% CO2. The number of cells used for used in this study was between 3 generations and 10 generations, and they were allowed to grow in untreated culture dishes. Before drug treatment, BAECs were grown to confluency in a 5% CO2 incubator with growth media containing 50 μg/mL penicillin and 50 μg/mL streptomycin. The cells were then starved for between 4 hours and 24 hours in starvation media (DMEM supplemented with 0.5% FBS and 50 μg/mL penicillin and 50 μg/mL streptomycin).
For the apoptotic analysis, the confluent cells were incubated in 0.5% FBS-DMEM containing 0 μM or 100 μM etoposide (ETO, Sigma) or varying amounts of pinosylvin for 36 hours. […]
For Hoechst staining, the confluent cells were incubated with 0.5% FBS-DMEM containing 100 μM ETO without any compound (vehicle control) for 36 hours. […] After incubation, the stained cells were thoroughly washed with PBS and the nuclei were observed under a fluorescence microscope (Zeiss Autoplan 2) to confirm the occurrence of apoptosis.

[2] = tested on: Bovine aortic endothelial cells (BAECs); experiment: Endothelial tube formation on ECM gel; assay type: cell-based; conditions: FIG. 4B
Protocol: ECM gel (Cell Biolabs Inc.) was thawed overnight at 4° C. Then, the thawed gel 50 μL was added into each well of the 96-well plates. To form a gel, the 96-well plates were incubated at 37° C. for 1 hour. Then, the BAEC suspension (1.5×10^4 cells/100 μL) containing no pinosylvin, 1 pM pinosylvin, or 1 pM pinosylvin with 2.5 mM L-NAME, in DMEM, respectively, was added into a gel and placed in a 5% CO2 incubator at 37° C. for 12 hours to 18 hours. Then, the endothelial cells were observed under a microscope to confirm tube formation.

[3] = tested on: Bovine aortic endothelial cells (BAECs); experiment: Serum starvation-induced apoptosis of endothelial cells (apoptotic cell count under microscope); assay type: cell-based
Protocol: as §2
[…] Since pinosylvin is not commercially available, it was synthesized as described (Park et al., Cell Physiol Biochem. 2011; 27(3-4): 353-62.). […]
Confluent BAECs were starved for more than 4 hours, treated with pinosylvin, and then incubated for an additional period of time (0 hours, 12 hours, 24 hours, and 48 hours) for the evaluation of time-dependent changes in apoptosis. […] For quantification, the present inventors counted the number of apoptotic cells in the same visual field.

JNK = experiment: Western blotting of p-JNK in BAECs; assay type: cell-based, Bovine; conditions: 1 pM pinosylvin, 0 to 60 minutes, serum-depleted BAECs, FIG. 2
Protocol: as §1

Akt = experiment: Western blotting of p-Akt in BAECs; assay type: cell-based, Bovine; conditions: 1 pM pinosylvin, 0 to 60 minutes, serum-depleted BAECs, FIG. 2
Protocol: as §1

[4] = tested on: Bovine aortic endothelial cells (BAECs); experiment: Endothelial cell migration (wound scrape); assay type: cell-based; conditions: 1 pM pinosylvin, FIG. 4A
Protocol: Confluent BAECs were treated twice with 2 mM thymidine for 18 hours and wounded with a pipette tip. Then, the cells were incubated in the starvation media for 20 hours with increasing amounts of pinosylvin: 1) no pinosylvin, 2) 1 pM pinosylvin, or 3) 1 pM pinosylvin with 2.5 mM L-NAME, in DMEM, respectively. The migrated cells were observed under a microscope and quantified by counting the number of the migrated cells in the wound area.

eNOS = experiment: Western blotting of p-eNOS in BAECs; assay type: cell-based, Bovine; conditions: 1 pM pinosylvin, 0 to 60 minutes, serum-depleted BAECs, FIG. 2
Protocol: as §1

ERK = experiment: Western blotting of p-ERK in BAECs; assay type: cell-based, Bovine; conditions: 1 pM pinosylvin, 0 to 60 minutes, serum-depleted BAECs, FIG. 2
Protocol: as §1

[5] = tested on: Bovine aortic endothelial cells (BAECs); experiment: Endothelial cell proliferation (microscopy, WST-1 assay); assay type: cell-based
Protocol: as §2
Cell proliferation was measured using a cell viability assay kit (Daeil Lab Service Co., LTD., Seoul, Korea). Specifically, confluent BAECs were serum-starved for 16 hours, and then various concentrations of pinosylvin or 20% serum were added and incubated. The cells were washed more than twice with PBS and reacted with the WST-1 reagent. The live cells were then measured at 450 nm using an ELISA microplate reader (Bio-Rad, Model 550).

p38 MAP kinase = experiment: Western blotting of p-p38 MAP kinase in BAECs; assay type: cell-based, Bovine; conditions: 1 pM pinosylvin, 0 to 60 minutes, serum-depleted BAECs, FIG. 2
Protocol: as §1

Row | SMILES | caspase-3 activation (caspase-3; 100 μM ETO) | fragmentation of the nuclei (Hoechst 33258 staining) ([1]; cells treated with 100 μM ETO alone) | effect of tube formation by pinosylvin when treated concurrently with L-NAME ([2]; 1 pM pinosylvin with 2.5 mM L-NAME (eNOS inhibitor)) | tube formation compared to the control group ([2]; 1 pM pinosylvin) | starvation-induced apoptosis, apoptotic cells counted per visual field ([3]; 1 pM to 10 μM of pinosylvin, FIG. 1A bottom panel) | serum starvation-induced apoptosis (round and shrunken cells) ([3]; BAECs serum-starved for 72 hours, low dose of pinosylvin, FIG. 1A top panel) | JNK phosphorylation (JNK) | Akt phosphorylation (Akt) | ETO-induced caspase-3 activation (caspase-3; 1 pM pinosylvin, 100 μM ETO) | starvation-induced caspase-3 activation (caspase-3; 1 pM pinosylvin, serum-depleted cells) | cell migration [4] | eNOS phosphorylation (eNOS) | ERK phosphorylation (ERK) | number of cells compared with untreated cells (microscope) ([5]; 1 pM pinosylvin, thirty percent confluent BAECs, FIG. 3A) | cell proliferation, WST-1 assay ([5]; DMEM with none or 20% serum, 24 hours, FIG. 3B) | fragmentation of the nuclei (Hoechst 33258 staining), ETO-induced ([1]; 1 pM pinosylvin together with 100 μM ETO) | p38 phosphorylation (p38 MAP kinase)
1 | COc1cc([C@@H]2c3cc4c(cc3[C@@H](O[C@@H]3O[C@@H]5CO[C@@H](C)O[C@H]5[C@H](O)[C@H]3O)[C@H]3COC(=O)[C@H]23)OCO4)cc(OC)c1O [ETO, etoposide, reference compound] | activate caspase-3 | detected | – | – | – | – | – | – | – | – | – | – | – | – | – | – | –
2 | Oc1cc(O)cc(/C=C/c2ccccc2)c1 [pinosylvin, 5-[(E)-2-phenylethenyl]benzene-1,3-diol] | – | – | reduced | significantly increase tube formation | inhibited | prevent serum starvation-induced apoptosis | remained largely unchanged | substantially promoted | inhibited | inhibited | significantly promote cell migration | substantially promoted | remained largely unchanged | increased | promote cell proliferation regardless of the presence of serum | markedly reduced level | remained largely unchanged
